Consider 1 compound from article PMC11509018, “Evaluation of the Role of Tanshinone I in an In Vitro System of Charcot-Marie-Tooth Disease Type 2N” (International Journal of Molecular Sciences, 2024).

In one data set the test system is 293T cells. Briefly: Cell viability (CCK-8 assay). It is filed as cell-based. The conditions noted are these: up to 40 μM, 24 h. The method, then: (§1) Further validation of the safety and efficacy of Tanshinone I involved conducting cytotoxicity assays to ensure minimal toxicity to normal cells, while effectively inhibiting the abnormal interaction between AlaRS CMT mutants and Nrp1. We used the CCK-8 assay to evaluate the effects of Tanshinone I on 293T and NSC34 cells. Cells were treated with different concentrations of Tanshinone I for 24 h, followed by incubation with CCK-8 reagent. […] The Cell Counting Kit-8 (CCK-8) assay was performed to assess cell viability following the manufacturer’s instructions. Briefly, cells were seeded at an initial density of 5 × 10^3 cells per well in a 96-well plate and incubated overnight. The following day, the cells were treated with various concentrations of Tanshinone I. After 24 h of treatment, 10 μL of CCK-8 reagent (GlpBio, Montclair, CA, USA) was added to each well, and the plate was incubated at 37 °C with 5% CO2 for 1.5 h. Absorbance was then measured at 450 nm using a multimode microplate reader. The experiment was repeated three times.
In general terms: Tetrazolium dyes change colour on reduction, which living cells bring about.

For a further data set, the system named is NSC34 cells. Briefly: Cell viability (CCK-8 assay). Particulars: up to 40 μM, 24 h. In kind it is cell-based. The protocol: as §1
In another data set the target is T1, AlaRS^G102R (Homo sapiens, UniProt P49588, G102R).
T1 construct: made in house; host or cells: E. coli BL21 (DE3), pET-21a
T1 sequence (P49588 1-968 G102R): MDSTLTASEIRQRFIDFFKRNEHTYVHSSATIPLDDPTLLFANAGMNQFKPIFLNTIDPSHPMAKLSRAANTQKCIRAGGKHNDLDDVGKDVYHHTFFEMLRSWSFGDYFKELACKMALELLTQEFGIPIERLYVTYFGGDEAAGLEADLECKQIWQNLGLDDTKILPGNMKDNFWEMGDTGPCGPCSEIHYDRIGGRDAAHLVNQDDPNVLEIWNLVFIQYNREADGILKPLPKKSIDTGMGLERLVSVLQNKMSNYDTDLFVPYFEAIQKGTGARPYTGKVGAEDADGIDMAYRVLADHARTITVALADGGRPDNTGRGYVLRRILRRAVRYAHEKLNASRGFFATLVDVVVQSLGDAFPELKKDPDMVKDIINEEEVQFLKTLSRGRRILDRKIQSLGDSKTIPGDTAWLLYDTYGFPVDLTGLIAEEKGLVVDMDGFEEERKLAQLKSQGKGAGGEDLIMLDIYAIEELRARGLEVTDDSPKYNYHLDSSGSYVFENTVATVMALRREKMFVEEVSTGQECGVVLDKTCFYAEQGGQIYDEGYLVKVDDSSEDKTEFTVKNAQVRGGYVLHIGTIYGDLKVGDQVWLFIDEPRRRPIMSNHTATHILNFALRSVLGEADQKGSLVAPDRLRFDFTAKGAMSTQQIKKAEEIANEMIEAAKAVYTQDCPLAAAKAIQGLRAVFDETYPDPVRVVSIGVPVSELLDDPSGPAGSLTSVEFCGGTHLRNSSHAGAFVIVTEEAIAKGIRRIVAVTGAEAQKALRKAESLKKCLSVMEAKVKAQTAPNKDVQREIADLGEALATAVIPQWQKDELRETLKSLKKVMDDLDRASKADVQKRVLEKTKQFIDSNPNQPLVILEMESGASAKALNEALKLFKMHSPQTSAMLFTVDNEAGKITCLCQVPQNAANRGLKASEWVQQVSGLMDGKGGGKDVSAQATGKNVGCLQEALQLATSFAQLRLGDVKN
Briefly: Proteolytic digestion assay (trypsin, SDS-PAGE). The conditions noted are these: three hours. The text has this:
(§2) Furthermore, we examined the interaction of Tanshinone I with additional AlaRS CMT mutants capable of binding to Nrp1 and causing conformational changes by BLI and proteolysis assays on additional related mutants.
(§3) Figure 5 BLI and proteolytic digestion assay of AlaRS mutants with Tanshinone I. Binding sensorgrams for the interaction of Tanshinone I with immobilized AlaRS^R329H (A), AlaRS^G102R (C), AlaRS^R326W (E), and AlaRS^E337K (G). Each sensorgram contains five curves generated from five different concentrations. The KD values are presented as the mean ± SD and experiments were performed in triplicate. The AlaRS^N71Y (B), AlaRS^G102R (D), AlaRS^R326W (F), and AlaRS^E337K (H) proteins (in the presence and absence of Tanshinone I) were incubated with trypsin at different concentrations for three hours before the reactions were quenched, and the products were separated by SDS-PAGE.

In a further data set the target is T2, AlaRS^N71Y (Homo sapiens, UniProt P49588, N71Y).
T2 construct: made in house; host or cells: E. coli BL21 (DE3), pET-21a
T2 sequence (P49588 1-968 N71Y): T1 sequence (P49588 1-968 G102R) with N71Y, R102G
Briefly: Proteolytic digestion assay (trypsin, SDS-PAGE). The conditions noted are these: three hours.
Source text: as §2, §3

Residue numbers refer to the chain shown, from its start.

Turning to `Cc1coc2c1C(=O)C(=O)c1c-2ccc2c(C)cccc12` [Tanshinone I], the Cell viability entry with 293T cells and in the data set on NSC34 cells was “did not significantly affect the viability” each time. Besides, the “Effect on proteolytic fragments / conformation” value on AlaRS^G102R was “more prominent bands at 1/100 after Tanshinone I treatment”; at AlaRS^N71Y, “significant conformational change”.
